In the assay the test system is P388 leukemia ip, CD2F1 mice, survival T/C. The assay can be described thus: NCI In Vivo Anticancer Drug Screen. Data for tumor model P388 Leukemia (intraperitoneal) in CD2F1 (CDF1) mice. The note with it: endpoint: median survival time, higher = longer survival. The method, boiled down:
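Mice carrying the transplanted tumor received test compound or vehicle. Survival was recorded in each group, and the value is the treated-group measurement divided by that of the vehicle-treated control group.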

[1] abbreviates: dose: 60.0 mg/kg/injection, schedule: Q01DX005 (ip), vehicle: saline with Tween-80.
Setting [2] is: dose: 120.0 mg/kg/injection, schedule: Q01DX005 (ip), vehicle: saline with Tween-80.
The mark [3] stands for this setting: dose: 240.0 mg/kg/injection, schedule: Q01DX005 (ip), vehicle: saline with Tween-80.
[4] abbreviates: dose: 12.5 mg/kg/injection, schedule: Q01DX009 (ip), vehicle: distilled water + Tween-80.
Setting [5] is: dose: 25.0 mg/kg/injection, schedule: Q01DX009 (ip), vehicle: distilled water + Tween-80.
Where [6] appears, read: dose: 50.0 mg/kg/injection, schedule: Q01DX009 (ip), vehicle: distilled water + Tween-80.
[7] abbreviates: dose: 50.0 mg/kg/injection, schedule: Q01DX005 (ip), vehicle: Klucel (hydroxypropylcellulose) (HPC).
[8] abbreviates: dose: 100.0 mg/kg/injection, schedule: Q01DX005 (ip), vehicle: Klucel (hydroxypropylcellulose) (HPC).
[9] abbreviates: dose: 200.0 mg/kg/injection, schedule: Q01DX005 (ip), vehicle: Klucel (hydroxypropylcellulose) (HPC).
Where [10] appears, read: dose: 50.0 mg/kg/injection, schedule: Q01DX009 (ip), vehicle: Klucel (hydroxypropylcellulose) (HPC).
Where [11] appears, read: dose: 100.0 mg/kg/injection, schedule: Q01DX009 (ip), vehicle: Klucel (hydroxypropylcellulose) (HPC).
The mark [12] stands for this setting: dose: 200.0 mg/kg/injection, schedule: Q01DX009 (ip), vehicle: Klucel (hydroxypropylcellulose) (HPC).
Where [13] appears, read: dose: 50.0 mg/kg/injection, schedule: Q01DX005 (ip), vehicle: saline with Tween-80.
Setting [14] is: dose: 100.0 mg/kg/injection, schedule: Q01DX005 (ip), vehicle: saline with Tween-80.
Setting [15] is: dose: 200.0 mg/kg/injection, schedule: Q01DX005 (ip), vehicle: saline with Tween-80.
Where [16] appears, read: dose: 100.0 mg/kg/injection, schedule: Q01DX009 (ip), vehicle: saline with Tween-80.

Where “and” joins values, the source holds several entries; their conditions need not be identical. Identical values can stand only once. Inconclusive results and toxic doses are left out.

For the compound `O=C1OC(C(O)CO)/C(=N\O)C1O` (stereo not drawn), the T/C by setting is: (dose: 50.0 mg/kg/injection, schedule: Q01DX009 (ip), vehicle: saline) 104 % of control; (dose: 100.0 mg/kg/injection, schedule: Q01DX009 (ip), vehicle: saline) 104 % of control; (dose: 200.0 mg/kg/injection, schedule: Q01DX009 (ip), vehicle: saline) 111 % of control.

For `COC1=C(OC)C(=O)C(C(=O)CCCCC(=O)O)=C(C)C1=O`, the T/C is 107 % of control under setting [1], 101 % of control under setting [2] and 107 % of control under setting [3].

On to `O=C(N/N=C\c1cc(Br)cc(Br)c1O)N/N=C/c1cc(Br)cc(Br)c1O`, for which the T/C was 100 % of control and 110 % of control (dose: 6.25 mg/kg/injection, schedule: Q01DX009 (ip), vehicle: saline with Tween-80); 98 % of control under setting [4]; 106 % of control (dose: 20.0 mg/kg/injection, schedule: Q01DX005 (ip), vehicle: suspension in saline); 101 % of control (dose: 20.0 mg/kg/injection, schedule: Q01DX005 (iv), vehicle: suspension in saline); 106 % of control under setting [5]; 101 % of control (dose: 40.0 mg/kg/injection, schedule: Q01DX005 (iv), vehicle: suspension in saline). The T/C was 120 % of control under setting [6]; 103 % of control (dose: 50.0 mg/kg/injection, schedule: Q01DX009 (oral), vehicle: saline with Tween-80); 100 % of control (dose: 80.0 mg/kg/injection, schedule: Q01DX005 (iv), vehicle: suspension in saline); 105 % of control (dose: 100.0 mg/kg/injection, schedule: Q01DX009 (oral), vehicle: saline with Tween-80); 158 % of control (dose: 160.0 mg/kg/injection, schedule: Q01DX005 (ip), vehicle: suspension in saline); 100 % of control (dose: 160.0 mg/kg/injection, schedule: Q01DX005 (iv), vehicle: suspension in saline). Besides, the T/C is, setting by setting: (dose: 200.0 mg/kg/injection, schedule: Q01DX009 (oral), vehicle: saline with Tween-80) 108 % of control; (dose: 280.0 mg/kg/injection, schedule: Q01DX005 (ip), vehicle: suspension in saline) 160 % of control; (dose: 400.0 mg/kg/injection, schedule: Q01DX009 (oral), vehicle: saline with Tween-80) 104 % of control; (dose: 800.0 mg/kg/injection, schedule: Q01DX009 (oral), vehicle: saline with Tween-80) 104 % of control; (dose: 1600.0 mg/kg/injection, schedule: Q01DX009 (oral), vehicle: saline with Tween-80) 106 % of control.

`N#CCOC1OC(CO)C(O)C(O)C1O` (stereo not drawn): the T/C reads like this: under setting [7], 100 % of control; under setting [8], 99 % of control; under setting [9], 99 % of control.

On to `NNc1cnc2ccccc2n1`, for which the T/C by setting is: (dose: 1.88 mg/kg/injection, schedule: Q01DX009 (ip), vehicle: suspension in saline) 93 % of control; (dose: 18.8 mg/kg/injection, schedule: Q04DX003 (ip), vehicle: saline) 101 % of control and 106 % of control; (dose: 37.5 mg/kg/injection, schedule: Q01DX009 (ip), vehicle: suspension in saline) 95 % of control; (dose: 37.5 mg/kg/injection, schedule: Q04DX003 (ip), vehicle: saline) 100 % of control and 103 % of control; (dose: 75.0 mg/kg/injection, schedule: Q01DX009 (ip), vehicle: suspension in saline) 90 % of control; (dose: 75.0 mg/kg/injection, schedule: Q04DX003 (ip), vehicle: saline) 100 % of control and 107 % of control.

As for `C1CSCCSCCSCCSCCSCCS1`, the T/C is, setting by setting: under setting [10], 96 % of control; under setting [11], 102 % of control; under setting [12], 96 % of control.

Turning to `O=C(Nc1ccc(Cc2ccc(NC(=O)C34CC5CC(CC(C5)C3)C4)cc2)cc1)C12CC3CC(CC(C3)C1)C2`, the T/C runs as follows: under setting [13], 88 % of control; under setting [14], 88 % of control.

As for `O=C1c2ccccc2C(=O)C1C(=Nc1ccccc1Br)c1ccccc1`, the T/C was 99 % of control under setting [13], 103 % of control under setting [14] and 103 % of control under setting [15].

In the case of `C=CCNc1nc2c(s1)c1c(O)c3c(O)c(C)c4c(c32)C(=O)C(C)(O/C=C\C(OC)C(C)C(OC(C)=O)C(C)C(O)C(C)C(O)C(C)/C=C/C=C(/C)C(=O)N1)O4` (stereo not drawn), the T/C runs as follows: (dose: 25.0 mg/kg/injection, schedule: Q01DX009 (ip), vehicle: Klucel (hydroxypropylcellulose) (HPC)) 98 % of control; under setting [10], 100 % of control; under setting [11], 100 % of control; under setting [12], 94 % of control.

As for `N/C(=N\N=C\c1cc(Br)cc(Br)c1O)N/N=C/c1cc(Br)cc(Br)c1O`, the T/C by setting is: under setting [4], 88 % of control; under setting [5], 93 % of control; under setting [6], 90 % of control; (dose: 200.0 mg/kg/injection, schedule: Q01DX009 (ip), vehicle: distilled water + Tween-80) 98 % of control.

For the compound `CN1CCC(O)(C(O)(c2ccccc2)c2ccccc2)CC1`, the T/C runs as follows: under setting [1], 96 % of control; under setting [2], 100 % of control; under setting [3], 103 % of control.

As for `Nc1ncnc2c1ccn2Cc1c(Cl)cccc1Cl`, the T/C reads like this: (dose: 50.0 mg/kg/injection, schedule: Q01DX005 (ip), vehicle: distilled water + alcohol) 101 % of control; (dose: 100.0 mg/kg/injection, schedule: Q01DX005 (ip), vehicle: distilled water + alcohol) 101 % of control; (dose: 200.0 mg/kg/injection, schedule: Q01DX005 (ip), vehicle: distilled water + alcohol) 98 % of control.

For `C[n+]1c(C2(C)CCCO2)sc2ccccc21` (stereo not drawn), the T/C (dose: 60.0 mg/kg/injection, schedule: Q01DX005 (ip), vehicle: saline) was 103 % of control.

Turning to `CN1CC=C(c2ccccc2)CC1`, the T/C runs as follows: (dose: 6.25 mg/kg/injection, schedule: Q01DX005 (ip), vehicle: saline) 97 % of control; (dose: 12.5 mg/kg/injection, schedule: Q01DX005 (ip), vehicle: saline) 99 % of control; (dose: 25.0 mg/kg/injection, schedule: Q01DX005 (ip), vehicle: saline) 101 % of control and 98 % of control.

Consider `CCOC(=O)c1nn(C)c(=O)[nH]c1=O`, for which the T/C runs as follows: under setting [13], 99 % of control; under setting [14], 100 % of control; under setting [15], 100 % of control.

Consider `CC(=O)C1=CN(C)c2ccccc2S1`, for which the T/C under setting [7] is 103 % of control, the T/C under setting [8] was 99 % of control and the T/C under setting [9] was 108 % of control.

On to `O=C(NC(=O)c1ccccc1F)Nc1ccc(Cl)cc1`, for which the T/C is 101 % of control under setting [10], 100 % of control under setting [11] and 91 % of control under setting [12].

As for `O=[N+]([O-])c1ccc(-c2nc(CN3CCOCC3)cs2)s1`, the T/C is, setting by setting: (dose: 25.0 mg/kg/injection, schedule: Q01DX009 (ip), vehicle: saline with Tween-80) 98 % of control; (dose: 50.0 mg/kg/injection, schedule: Q01DX009 (ip), vehicle: saline with Tween-80) 103 % of control; under setting [16], 106 % of control.

For the compound `COC(=O)C12N=NN(c3ccccc3)C1(C(=O)OC)C1CCC2C1` (stereo not drawn), the T/C by setting is: under setting [16], 95 % of control; (dose: 200.0 mg/kg/injection, schedule: Q01DX009 (ip), vehicle: saline with Tween-80) 100 % of control; (dose: 400.0 mg/kg/injection, schedule: Q01DX009 (ip), vehicle: saline with Tween-80) 90 % of control.

As for `Cc1nccc(N[N+](=O)[O-])c1C`, the T/C runs as follows: (dose: 12.5 mg/kg/injection, schedule: Q01DX009 (ip), vehicle: other) 100 % of control; (dose: 25.0 mg/kg/injection, schedule: Q01DX009 (ip), vehicle: other) 93 % of control; (dose: 50.0 mg/kg/injection, schedule: Q01DX009 (ip), vehicle: other) 117 % of control; (dose: 100.0 mg/kg/injection, schedule: Q01DX009 (ip), vehicle: other) 100 % of control; (dose: 200.0 mg/kg/injection, schedule: Q01DX009 (ip), vehicle: other) 103 % of control.

These data come from PubChem BioAssay AID330 (DTP/NCI, 2004).
